These are literature values, as cited in US11406602B2, “Substances for reducing occurrence of major cardiac events comprising red yeast rice extract and omega-3 polyunsaturated fatty acid or derivative thereof” (NORDIC NATURALS, INC., priority 2007, dated 2022).

For series [1] the following is noted: prior art description of lovastatin.
The conditions of series [2]: 10, 20, and 40 mg/day.
The next series relates to patients. Particulars: 20 mg/day for 24 weeks.

As for `CC[C@H](C)C(=O)O[C@H]1C[C@@H](C)C=C2C=C[C@H](C)[C@H](CC[C@@H]3C[C@@H](O)CC(=O)O3)[C@H]21` [Lovastatin, lovastatin], in series [1], the water solubility entry is “water insoluble”. The decrease in triglycerides (slight decreases) is on record as 5-10%. Besides, where the note is “slight to moderate increases”, the “increase in high density lipoproteins (HDL)” value is recorded as 10-20%. In addition, in series [2], the “reduction in LDL” value was 21-32% and the “reduction in total cholesterol” value is 16-24%. In series [2] (higher reduction at lower dosage), the reduction in triglycerides is recorded as 10 to 6%. In addition, in the series on patients, the “fall in total cholesterol” value is 26% and the fall in triglycerides is given as 12%.
